Source: patent US12077503B2, “Substituted cyclic amides and their use as herbicides” (FMC CORPORATION, priority 2015, dated 2024)

How the values were obtained:
Assay type in all cases: in vivo
[1] = tested on: ragweed (common ragweed, Ambrosia elatior); experiment: Test A preemergence; settings: Ambrosia artemisiifolia, pre-emergence, 240 h, 0 to 100 scale where 0 is no effect and 100 is complete control, read-out: Ragweed plant response rating
In short: (§1)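 Seeds sprayed preemergence with a directed soil spray, or plants at 2 to 10 cm height and one- to two-leaf stage sprayed postemergence, with test chemicals in a non-phytotoxic solvent mixture containing surfactant, in loam soil–sand blend. Injury rated visually against untreated controls after about 10 d in greenhouse, 0 (no effect) to 100 (complete control).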

[2] = tested on: barnyardgrass (Echinochloa crus-galli); experiment: Test A preemergence; settings: Echinochloa crus-galli, pre-emergence, 240 h, 0 to 100 scale where 0 is no effect and 100 is complete control, read-out: Barnyardgrass plant response rating
In short: as §1

[3] = tested on: ryegrass, Italian (Italian ryegrass, Lolium multiflorum); experiment: Test A preemergence; settings: Lolium multiflorum, pre-emergence, 240 h, 0 to 100 scale where 0 is no effect and 100 is complete control, read-out: Ryegrass, Italian plant response rating
In short: as §1

Kochia (Kochia scoparia) [4] = experiment: Test A preemergence; settings: Bassia scoparia, pre-emergence, 240 h, 0 to 100 scale where 0 is no effect and 100 is complete control, read-out: Kochia plant response rating
In short: as §1

[5] = tested on: giant foxtail (Setaria faberii); experiment: Test A preemergence; settings: Setaria faberi, pre-emergence, 240 h, 0 to 100 scale where 0 is no effect and 100 is complete control, read-out: Foxtail, Giant plant response rating
In short: as §1

[6] = tested on: pigweed (Amaranthus retroflexus); experiment: Test A preemergence; settings: Amaranthus retroflexus, pre-emergence, 240 h, 0 to 100 scale where 0 is no effect and 100 is complete control, read-out: Pigweed plant response rating
[7] = tested on: Galium (catchweed bedstraw, Galium aparine); experiment: Test A postemergence; settings: Galium, post-emergence, 240 h, read-out: Galium plant response rating (0 to 100 scale)
In short: as §1

corn (Zea mays) = experiment: Test A postemergence; settings: Zea mays, post-emergence, 240 h, read-out: Corn plant response rating (0 to 100 scale)
In short: as §1

[8] = tested on: ragweed (common ragweed, Ambrosia elatior); experiment: Test A postemergence; settings: Ambrosia artemisiifolia, post-emergence, 240 h, read-out: Ragweed plant response rating (0 to 100 scale)
In short: as §1

[9] = tested on: blackgrass (Alopecurus myosuroides); experiment: Test A postemergence; settings: Alopecurus myosuroides, post-emergence, 240 h, read-out: Blackgrass plant response rating (0 to 100 scale)
In short: as §1

[10] = tested on: wheat (Triticum aestivum); experiment: Test A postemergence; settings: Triticum aestivum, post-emergence, 240 h, read-out: Wheat plant response rating (0 to 100 scale)
In short: as §1

[11] = tested on: barnyardgrass (Echinochloa crus-galli); experiment: Test A postemergence; settings: Echinochloa crus-galli, post-emergence, 240 h, read-out: Barnyardgrass plant response rating (0 to 100 scale)
In short: as §1

[12] = tested on: ryegrass, Italian (Italian ryegrass, Lolium multiflorum); experiment: Test A postemergence; settings: Lolium multiflorum, post-emergence, 240 h, read-out: Ryegrass, Italian plant response rating (0 to 100 scale)
In short: as §1

Kochia (Kochia scoparia) [13] = experiment: Test A postemergence; settings: Bassia scoparia, post-emergence, 240 h, read-out: Kochia plant response rating (0 to 100 scale)
In short: as §1

[14] = tested on: giant foxtail (Setaria faberii); experiment: Test A postemergence; settings: Setaria faberi, post-emergence, 240 h, read-out: Foxtail, Giant plant response rating (0 to 100 scale)
In short: as §1

[15] = tested on: pigweed (Amaranthus retroflexus); experiment: Test A postemergence; settings: Amaranthus retroflexus, post-emergence, 240 h, read-out: Pigweed plant response rating (0 to 100 scale)
In short: as §1

[16] = tested on: sedge, umbrella (small-flower umbrella sedge, Cyperus difformis); experiment: Test B flooded paddy test; settings: Cyperus difformis, 250 g ai/ha, Flood; 0 to 100 scale where 0 is no effect and 100 is complete control; read-out: Sedge, Umbrella plant response rating
In short: (§2)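 Greenhouse paddy pots with 2-leaf stage plants received compound by direct addition to floodwater 3 cm deep, kept at that level. Scored visually at 13–15 d versus controls (0 no effect; 100 complete control).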

[17] = tested on: barnyardgrass (Echinochloa crus-galli); experiment: Test B flooded paddy test; settings: Echinochloa crus-galli, 250 g ai/ha, Flood; 0 to 100 scale where 0 is no effect and 100 is complete control; read-out: Barnyardgrass plant response rating
In short: as §2

rice (Oryra sativa) = experiment: Test B flooded paddy test; settings: Oryza sativa, 250 g ai/ha, Flood; 0 to 100 scale where 0 is no effect and 100 is complete control; read-out: Rice plant response rating
In short: as §2

[18] = tested on: ducksalad (Heteranthera limosa); experiment: Test B flooded paddy test; settings: Heteranthera limosa, 250 g ai/ha, Flood; 0 to 100 scale where 0 is no effect and 100 is complete control; read-out: Ducksalad plant response rating
In short: as §2

[19] = 125 g ai/ha, preemergence, visual injury rating, approximately 10 d
[20] = 125 g ai/ha, postemergence, visual injury vs untreated controls after approx. 10 d, 0 = no effect, 100 = complete control
[21] = Postemergence, 31 g ai/ha, 0 is no effect, 100 is complete control

CN1C[C@H](c2ccc(C#N)c(F)c2)[C@@H](C(=O)Nc2cccc(F)c2F)C1=O [Compound 1192]
70%: pest or weed control at 31 g/ha ([2]; 31 g ai/ha, Preemergence) | pest or weed control at 125 g/ha [14, 20]
50%: pest or weed control at 125 g/ha (Kochia (Kochia scoparia) [4]; [19]) | pest or weed control at 125 g/ha [7, 20] | pest or weed control at 31 g/ha [11, 21]
0%: pest or weed control at 31 g/ha ([1]; 31 g ai/ha, Preemergence) | pest or weed control at 125 g/ha [1, 19] | pest or weed control at 31 g/ha ([3]; 31 g ai/ha, Preemergence) | pest or weed control at 125 g/ha [3, 19] | pest or weed control at 31 g/ha (Kochia (Kochia scoparia) [4]; 31 g ai/ha, Preemergence) | pest or weed control at 31 g/ha ([6]; 31 g ai/ha, Preemergence) | pest or weed control at 31 g/ha [7, 21] | plant injury at 31 g/ha (corn (Zea mays); [21]) | pest or weed control at 125 g/ha [8, 20] | pest or weed control at 31 g/ha [8, 21] | pest or weed control at 125 g/ha [9, 20] | pest or weed control at 31 g/ha [9, 21] | plant injury at 125 g/ha [10, 20] | plant injury at 31 g/ha [10, 21] | pest or weed control at 125 g/ha [12, 20] | pest or weed control at 31 g/ha [12, 21] | pest or weed control at 31 g/ha (Kochia (Kochia scoparia) [13]; [21]) | pest or weed control at 31 g/ha [15, 21]
40%: plant injury at 125 g/ha (corn (Zea mays); [20]) | pest or weed control at 125 g/ha (Kochia (Kochia scoparia) [13]; [20]) | pest or weed control at 31 g/ha [14, 21]
100%: pest or weed control at 125 g/ha [2, 19] | pest or weed control at 125 g/ha [5, 19] | pest or weed control at 125 g/ha [11, 20] | pest or weed control at 250 g/ha [17]
20%: pest or weed control at 125 g/ha [15, 20]
30%: pest or weed control at 31 g/ha ([5]; 31 g ai/ha, Preemergence) | pest or weed control at 125 g/ha [6, 19] | pest or weed control at 250 g/ha [16] | pest or weed control at 250 g/ha (rice (Oryra sativa))
95%: pest or weed control at 250 g/ha [18]
